{"source": "patent US20100204161A1", "about": "“Substances and Pharmaceutical Compositions for the Inhibition of Glyoxalases and Their Use Against Bacteria” (BIOMAC PRIVATINSTITUT FUR MEDIZINISHE UND ZAHMEDIZ …, priority 2005, published 2010)", "key": {"yeast glyoxalase I": {"molecular_target": "T1, yeast glyoxalase I (Saccharomyces cerevisiae, UniProt P50107)", "T1 construct": "purchased Sigma G-4252", "T1 sequence (P50107 1-326)": "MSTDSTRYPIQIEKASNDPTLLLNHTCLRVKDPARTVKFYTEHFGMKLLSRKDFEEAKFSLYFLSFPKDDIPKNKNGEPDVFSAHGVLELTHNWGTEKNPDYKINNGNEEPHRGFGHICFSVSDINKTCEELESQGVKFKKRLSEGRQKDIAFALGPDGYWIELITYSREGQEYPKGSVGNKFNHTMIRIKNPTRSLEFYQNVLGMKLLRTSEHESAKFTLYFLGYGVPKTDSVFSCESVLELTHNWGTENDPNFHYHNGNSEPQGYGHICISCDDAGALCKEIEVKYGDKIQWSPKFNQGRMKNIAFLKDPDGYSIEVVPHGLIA", "experiment": "Enzymatic activity of yeast glyoxalase I (formation of S-D-lactoyl-glutathione, 240 nm)", "assay_type": "biochemical", "settings": "increasing concentrations (0-30 mM in Example 5); FIG. 1-3; listed as EP", "experimental": "Measuring glyoxalase I (E.C.4.4.1.5, lactoyl-glutathione lyase Sigma, G-4252) was performed according to the instructions of McLellan and Thornalley (1989). The principle is based on measuring the initial rate of formation of S-D-lactoyl-glutathione from methylglyoxal (Sigma, MO252, 40%) and reduced L-glutathione (Aldrich, G-4251, >99%). The formation of the product is observed using the extinction coefficient e=2.86 mM-1 cm-1 at 240 nm. The measurement was performed in 50 mM sodium phosphate buffer, pH 7.0. For that purpose 2 mM methylglyoxal and 2 mM reduced glutathione were incubated for 2 minutes at 30° C. for the formation of the hemithioacetal. Thereafter 20 μl of a 1 to 1000 dilution of the glyoxalase I (Sigma, G-4252) was added to 1 ml of the measuring reagent to start the reaction.\nGlyoxalase activity (IU) corresponds to the amount of enzyme forming 1 μmol of S-D-lactoyl-glutathione/min.\nDetermination of glyoxalase I activity was performed according to the general protocol as described above. The influence of ethyl pyruvate on enzyme activity was investigated by addition of increasing concentrations of EP (Sigma; no. E4, 780-8; lot. S18972-513) to the measuring reagent.\nDetermination of glyoxalase I activity was performed according to the general protocol as described above. The influence of compounds of the general formula (I), (II), and (III) on the activity of the enzyme was investigated by addition of increasing concentrations of these compounds to the preparation. The IC50-values were calculated from inhibition curves of each compound.\nDetermination of glyoxalase I activity was performed according to the general protocol as described above. The influence of 2-oxopropanethioic acid S-ethyl ester on the activity of the enzyme was investigated by addition of increasing concentrations of SE to the preparation for the measurement.\nDetermination of glyoxalase I activity was performed according to the general protocol as described above. The influence of effectors on the enzymatic activity was investigated by addition of increasing concentrations (0-30 mM) of EP (Sigma; no. E4, 780-8; lot. S18972-513) (triangle), BP (prepared according to the instructions of patent JP 11080089; 98%) (circle) and BL (Fluka, 69819; lot. 443090/1 21503090) (squares) to the measuring reagent (FIG. 3)."}, "yeast glyoxalase II": {"system": "yeast glyoxalase II", "experiment": "Enzymatic activity of yeast glyoxalase II (cell free extract, DTNB, 412 nm)", "assay_type": "biochemical, Saccharomyces cerevisiae", "settings": "0-20 mM; FIG. 4", "experimental": "Protein concentration of the cell free extract was determined according to the Bradford method (Bradford, 1976).\nThe activity of the glyoxalase II (Hydroxyacyl glutathione hydrolase, E.C. 3.1.2.6.) was determined according to the instructions of Martins et al. (1999) in 0.1 M MES buffer, pH 6.5, 1.5 mM S-D-lactoyl-glutathione (L7140, Sigma-Aldrich Chemistry GmbH) and 0.75 mM DTNB (Sigma, D8130). After addition of suitable amounts of cell extract and an incubation period of 15 min at 25° C. the formation of glutathione was measured at 412 nm (ε=13.6 mM^−1 cm^−1). The activity of the glyoxalase II (IU) correlates with the amount of enzyme hydrolysing 1 μmol of S-D-lactoyl-glutathion/min.\nThe influence of ethyl pyruvate on the activity of the enzyme was investigated by adding increasing concentrations of EP (Sigma, No. E4, 780-8; Lot. S18972-513) (0-20 mM) to the measurement reagent."}, "[1]": {"system": "primary human skin fibroblasts", "experiment": "Vitality of primary human fibroblasts (dye exclusion count)", "assay_type": "cell-based", "settings": "1-50 mM, serum free medium, 24 hours; FIG. 7", "experimental": "An identical number (10^4 cells per well) of primary human skin fibroblasts were inoculated in 24-well plates (Greiner, no. 662160) and were cultured in DMEM (Gibco; no. 41966-092) in the presence of 10% calf serum (Biochrom, S0113/5), 2 mM L-glutamine (Gibco; no. 25030-024), penicillin/streptomycin (100 units penicillin/ml; 100 μg streptomycin/ml, Gibco; no. 15140/122), 5 mg % ascorbic acid (Serva, no. 14030.02) at 37° C., 5% CO2 and 95% humidity. The primary human fibroblasts were prepared according to the instructions of Birkenmeier et al. (1998). After reaching 50% confluency the medium was by fresh serum free medium. Thereafter the following supplements were added to the cells: preparation 1 (equivalent volume of serum free (SF) medium, blank); preparation 2 (1 mM DEL or 1 mM LEL or 1 mM EP); preparation 3 (5 mM DEL or 5 mM LEL or 5 mM EP), preparation 4 (10 mM DEL or 10 mM LEL or 10 mM EP), preparation 5 (20 mM DEL or 20 mM LEL or 20 mM EP), preparation 6 (50 mM DEL or 50 mM LEL or 50 mM EP). The culture was continued at 37° C., 5% CO2 and 95% humidity for 24 hours. Thereafter the supernatants were removed and 100 μl of a 50% […] solution was added to the wells. After washing the cells with medium the unstained and stained cells were counted under the light optical microscope comprising a coordinate plane. Cells stained blue were assessed as avital, unstained cells as vital. The percentage of unstained cells of the total number of cells corresponds to the vitality of the cells."}}, "note": "Entries after “also recorded” stand apart in the source; their conditions may differ.", "data": [{"smiles": "CCOC(=O)C(C)=O", "note": "[Ethyl pyruvate]", "values": [{"measurement": "Influence on the enzymatic activity of yeast glyoxalase I", "setting": "yeast glyoxalase I", "value": "inhibits the reaction of yeast glyoxalase I in a concentration dependent manner; also recorded: inhibit the activity of glyoxalase I in a concentration dependent manner"}, {"measurement": "Influence on the enzymatic activity of yeast glyoxalase II", "setting": "yeast glyoxalase II", "value": "inhibits the reaction of yeast glyoxalase II in a concentration dependent manner"}, {"measurement": "Effect on the vitality of primary human fibroblasts", "setting": "[1]", "value": "not toxic over the concentration range investigated"}]}]}
